# Assay results: patent US20260226493A1, “HERBICIDE RESISTANT PLANTS” (SYNGENTA CROP PROTECTION AG, priority 2023, published 2026)
# Experiments:
# [1] = test system: D4555 (Escherichia coli BioA) containing tobacco plants; assay: Visual herbicide damage score on transgenic tobacco D4555 (pCMP MTP EcBioA); assay type: in vivo; conditions: 600 gai/ha, replicate clones A, B, C of events 8480, 8526
# Source text: (§1) In order to determine if the overexpressed gene detailed in Example 3 confers resistance to BIO3-BIO1 inhibiting compounds when expressed in plants, GM tobacco lines were produced and tested with BIO3-BIO1 inhibiting compounds. Transgenic tobacco plants expressing the Escherichia coli BioA gene with (SEQ ID NO:203) and without a mitochondrial signal peptide (SEQ ID NO: 202).
# (§2) Populations of transgenic tobacco comprising 20-30 transgenic events per plant transformation constructs were generated as described in Example 1. These lines were clonally propagated and 1 clone per event was sprayed with 600 g ai/ha compound L or A+0.2% Genapol X080 with a spray volume of 200 L/Ha (“g ai/ha” refers to grams of active compound per hectare).
# (§3) […] A score of 0 indicates no visible damage or stunting whereas a score of 100 indicates a complete death of the plant. 20 transgenic events (i.e. individual transgenic plants) from each GM tobacco line were transplanted to soil 1 week prior to spraying with BIO3-BIO1 inhibiting compounds. WT tobacco was included as a control.
# • D4555 (Escherichia coli BioA) containing tobacco plants; 04602 (Pantoea ananatis BioA) containing tobacco plants; 04603 (Stenotrophomonas maltophilia BioA) containing tobacco plants; 04609 (Chroococcidiopsis sp. CCMEE 29 BioA) containing tobacco plants; 04611 (Bacillus subtilis BioA) containing tobacco plants; 04606 (Streptomyces viridochromogenes BioA) containing tobacco plants; 04607 (Pedobacter hartonius BioA) containing tobacco plants; 04608 (Chitinophaga filiformis BioA) containing tobacco plants; and 04610 (Tenacibaculum adriaticum BioA) containing tobacco plants, are shown in the “TABLES” section below in Tables 16 to 24 respectively.
# [2] = test system: D4539 (Escherichia coli MTP BioA) containing tobacco plants; assay: Visual herbicide damage score on transgenic tobacco D4539 (pBin TMV MTP EcBioA); assay type: in vivo; conditions: 600 gai/ha
# Source text: as §1, §2, §3
structure (smiles),measurement,setting,value
"CCOC(=O)c1nn(-c2ccc3c(c2)OC(F)(F)C(F)(F)O3)c2cccc(C(C)=O)c2c1=O [Compound A, ethyl 5-acetyl-4-oxo-1-(2,2,3,3-tetrafluoro-1,4-benzodioxin-6-yl)cinnoline-3-carboxylate]",percentage of damage,[1]; 7 DAT,0%
same,percentage of damage,[1]; 14 DAT,0%
same,percentage of damage,[1]; 21 DAT,0%
same,percentage of damage (herbicide damage score),"[2]; D4539 event 8385, 7 DAT",5%
same,percentage of damage (herbicide damage score),"[2]; D4539 event 8385, 14 DAT",0%
same,percentage of damage (herbicide damage score),"[2]; D4539 event 8385, 21 DAT",0%
same,percentage of damage (herbicide damage score),"[2]; D4539 event 8386, 7 DAT",3%
same,percentage of damage (herbicide damage score),"[2]; D4539 event 8386, 14 DAT",0%
same,percentage of damage (herbicide damage score),"[2]; D4539 event 8386, 21 DAT",0%
same,percentage of damage (herbicide damage score),"[2]; D4539 event 8399, 7 DAT",2%
same,percentage of damage (herbicide damage score),"[2]; D4539 event 8399, 14 DAT",0%
same,percentage of damage (herbicide damage score),"[2]; D4539 event 8399, 21 DAT",0%
same,percentage of damage (herbicide damage score),"[2]; D4539 event 8402, 7 DAT",2%
same,percentage of damage (herbicide damage score),"[2]; D4539 event 8402, 14 DAT",0%
same,percentage of damage (herbicide damage score),"[2]; D4539 event 8402, 21 DAT",0%
same,percentage of damage (herbicide damage score),"[2]; D4539 event 8414, 7 DAT",7%
same,percentage of damage (herbicide damage score),"[2]; D4539 event 8414, 14 DAT",30%
same,percentage of damage (herbicide damage score),"[2]; D4539 event 8414, 21 DAT",35%
same,percentage of damage (herbicide damage score),"[2]; D4539 event 8415, 7 DAT",7%
same,percentage of damage (herbicide damage score),"[2]; D4539 event 8415, 14 DAT",0%
same,percentage of damage (herbicide damage score),"[2]; D4539 event 8415, 21 DAT",0%
same,percentage of damage (herbicide damage score),"[2]; D4539 event 8417, 7 DAT",2%
same,percentage of damage (herbicide damage score),"[2]; D4539 event 8417, 14 DAT",5%
same,percentage of damage (herbicide damage score),"[2]; D4539 event 8417, 21 DAT",10%
same,percentage of damage (herbicide damage score),"[2]; D4539 event 8418, 7 DAT",4%
same,percentage of damage (herbicide damage score),"[2]; D4539 event 8418, 14 DAT",10%
same,percentage of damage (herbicide damage score),"[2]; D4539 event 8418, 21 DAT",20%
same,percentage of damage (herbicide damage score),"[2]; D4539 event 8423, 7 DAT",2%
same,percentage of damage (herbicide damage score),"[2]; D4539 event 8423, 14 DAT",20%
same,percentage of damage (herbicide damage score),"[2]; D4539 event 8423, 21 DAT",30%
same,percentage of damage (herbicide damage score),"[2]; D4539 event 8424, 7 DAT",55%
same,percentage of damage (herbicide damage score),"[2]; D4539 event 8424, 14 DAT",80%
same,percentage of damage (herbicide damage score),"[2]; D4539 event 8424, 21 DAT",85%
same,percentage of damage (herbicide damage score),"[2]; D4539 event 8426, 7 DAT",2%
same,percentage of damage (herbicide damage score),"[2]; D4539 event 8426, 14 DAT",0%
same,percentage of damage (herbicide damage score),"[2]; D4539 event 8426, 21 DAT",0%
same,percentage of damage (herbicide damage score),"[2]; D4539 event 8433, 7 DAT",4%
same,percentage of damage (herbicide damage score),"[2]; D4539 event 8433, 14 DAT",0%
same,percentage of damage (herbicide damage score),"[2]; D4539 event 8433, 21 DAT",0%
same,percentage of damage (herbicide damage score),"[2]; D4539 event 8434, 7 DAT",4%
same,percentage of damage (herbicide damage score),"[2]; D4539 event 8434, 14 DAT",5%
same,percentage of damage (herbicide damage score),"[2]; D4539 event 8434, 21 DAT",15%
same,percentage of damage (herbicide damage score),"[2]; D4539 event 8438, 7 DAT",10%
same,percentage of damage (herbicide damage score),"[2]; D4539 event 8438, 14 DAT",75%
same,percentage of damage (herbicide damage score),"[2]; D4539 event 8438, 21 DAT",65%
same,percentage of damage (herbicide damage score),"[2]; D4539 event 8439, 7 DAT",2%
same,percentage of damage (herbicide damage score),"[2]; D4539 event 8439, 14 DAT",10%
same,percentage of damage (herbicide damage score),"[2]; D4539 event 8439, 21 DAT",0%
same,percentage of damage (herbicide damage score),"[2]; D4539 event 8447, 7 DAT",2%
same,percentage of damage (herbicide damage score),"[2]; D4539 event 8447, 14 DAT",0%
same,percentage of damage (herbicide damage score),"[2]; D4539 event 8447, 21 DAT",0%
same,percentage of damage (herbicide damage score),"[2]; D4539 event 8448, 7 DAT",2%
same,percentage of damage (herbicide damage score),"[2]; D4539 event 8448, 14 DAT",0%
same,percentage of damage (herbicide damage score),"[2]; D4539 event 8448, 21 DAT",0%
same,percentage of damage (herbicide damage score),"[2]; D4539 event 8460, 7 DAT",3%
same,percentage of damage (herbicide damage score),"[2]; D4539 event 8460, 14 DAT",0%
same,percentage of damage (herbicide damage score),"[2]; D4539 event 8460, 21 DAT",0%
same,percentage of damage (herbicide damage score),"[2]; D4539 event 8461, 7 DAT",15%
same,percentage of damage (herbicide damage score),"[2]; D4539 event 8461, 14 DAT",80%
same,percentage of damage (herbicide damage score),"[2]; D4539 event 8461, 21 DAT",85%
same,percentage of damage (herbicide damage score),"[2]; D4539 event 8462, 7 DAT",2%
same,percentage of damage (herbicide damage score),"[2]; D4539 event 8462, 14 DAT",0%
same,percentage of damage (herbicide damage score),"[2]; D4539 event 8462, 21 DAT",0%
